Drawing on US5723666A, “Oxime substituted tetrahydronaphthalene derivatives having retinoid and/or retinoid antagonist-like biological activity” (Allergan, priority 1996, dated 1998), this text covers Kd for one compound.

For the test, the target named is T1, RARα (Homo sapiens, UniProt P10276).
T1 sequence (P10276 1-462): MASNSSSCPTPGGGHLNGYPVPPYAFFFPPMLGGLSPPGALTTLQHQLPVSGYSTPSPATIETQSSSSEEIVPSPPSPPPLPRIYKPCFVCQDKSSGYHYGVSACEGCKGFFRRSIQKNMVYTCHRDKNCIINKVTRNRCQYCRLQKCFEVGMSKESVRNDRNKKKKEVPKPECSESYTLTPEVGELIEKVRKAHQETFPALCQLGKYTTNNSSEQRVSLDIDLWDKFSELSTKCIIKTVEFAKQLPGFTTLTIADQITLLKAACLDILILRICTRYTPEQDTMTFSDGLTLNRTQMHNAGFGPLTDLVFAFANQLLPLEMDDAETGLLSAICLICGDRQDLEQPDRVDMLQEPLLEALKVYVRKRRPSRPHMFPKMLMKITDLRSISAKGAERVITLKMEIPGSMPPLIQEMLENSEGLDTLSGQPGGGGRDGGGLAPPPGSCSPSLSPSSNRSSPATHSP
The experiment in a line: Ligand Binding Assay, RARα. The source says: Other assays described below, measure the ability of the compounds of the present invention to bind to, and/or activate various retinoid receptor subtypes. When in these assays a compound binds to a given receptor subtype and activates the transcription of a reporter gene through that subtype, then the compound is considered an agonist of that receptor subtype. […] In the below described assays the ability of the compounds to bind to RARα, RARβ, RARγ, RXRα, RXRβ and RXRγ receptors, and the ability or inability of the compounds to activate transcription of a reporter gene through these receptor subtypes can be tested.
A holoreceptor transactivation assay and a ligand binding assay which measure the antagonist/agonist like activity of the compounds of the invention, or their ability to bind to the several retinoid receptor subtypes, respectively, are described in published PCT Application No. WO WO93/11755 (particularly on pages 30-33 and 37-41) published on Jun. 24, 1993, the specification of which is also incorporated herein by reference. A description of the holoreceptor transactivation assay is also provided below.
CV1 cells (5,000 cells/well) were transfected with an RAR, reporter plasmid MTV-TREp-LUC (50 ng) along with one of the RAR expression vectors (10 ng) in an automated 96-well format by the calcium phosphate procedure of Heyman et al. Cell 68, 397-406, (1992). […]

As usually defined, the Kd is a measure of binding affinity in units of concentration. A low value points to a tighter complex. Take `CO/N=C1\CCC(C)(C)c2ccc(/N=N/c3ccc(C(=O)O)cc3)cc21` [Compound D4]: the Kd was 1000 nM.
